Experimental data: patent US20240197651A1, “DEXMECAMYLAMINE AND USES THEREOF” (Atacama Therapeutics, Inc., priority 2021, published 2024)

Assays:
Assay type in all cases: in vivo
[1] = tested on: patients with sebaceous cyst; assay: Treatment of sebaceous cyst
Procedure: The compound of the disclosure (e.g., dexmecamylamine substantially free of exo-R-mecamylamine) is administered to patients with sebaceous cyst. […] In some embodiments, the subject produces sebum in an amount of 100 μg/cm^2 and above (e.g., 125, 135, 150, 175, 200 μg/cm^2 or higher).

[2] = tested on: patients with sebaceous adenoma; assay: Treatment of sebaceous adenoma
Procedure: The compound of the disclosure (e.g., dexmecamylamine substantially free of exo-R-mecamylamine) is administered to patients with sebaceous adenoma. […] In some embodiments, the subject produces sebum in an amount of 100 μg/cm^2 and above (e.g., 125, 135, 150, 175, 200 μg/cm^2 or higher).

[3] = tested on: patients with enlarged pores; assay: Treatment of enlarged pores
Procedure: The compound of the disclosure (e.g., dexmecamylamine substantially free of exo-R-mecamylamine) is administered to patients with enlarged pores. […] In some embodiments, the compound is dexmecamylamine substantially free of exo-R-mecamylamine, or a pharmaceutically acceptable salt thereof. In some embodiments, the subject produces sebum in an amount of 100 μg/cm^2 and above (e.g., 125, 135, 150, 175, 200 μg/cm^2 or higher).

[4] = tested on: patients with hidradenitis suppurativa; assay: Treatment of hidradenitis suppurativa
Procedure: The compound of the disclosure (e.g., dexmecamylamine substantially free of exo-R-mecamylamine) is administered to patients with hidradenitis suppurativa. […] In some embodiments, the subject produces sebum in an amount of 100 μg/cm^2 and above (e.g., 125, 135, 150, 175, 200 μg/cm^2 or higher). In particular, 4 mg of dexmecamylamine hydrochloride is administered orally twice a day to a subject with hidradenitis suppurativa. Efficacy is measured by a change in pain, as measured using a 10-point numerical rating scale, 1 through 10, with 10 being the worst, from baseline to week 12; a change in quality of life using Dermatology Life Quality Index (DLQI) from baseline to week 12; a change in clinical status using the Hurley Staging from baseline to week 12; a change in clinical status using the International Hidradenitis Suppurative Severity Score System (IHS4) from baseline to week 12; a change in clinical status using the Hidradenitis Suppurative Clinical Response (HiSCR) from baseline to week 12; a change in clinical status using the Hidradenitis Suppurative Physician Global Assessment (HS-PGA) from baseline to week 12; a change in clinical status using the Hidradenitis Suppurative Area and Severity Index-Revised (HASI-R) from baseline to week 12; and/or a change in the absolute number of abscesses and inflammatory nodules.

[5] = tested on: patients with sebaceous carcinoma; assay: Treatment of sebaceous carcinoma
Procedure: The compound of the disclosure (e.g., dexmecamylamine substantially free of exo-R-mecamylamine) is administered to patients with sebaceous carcinoma. […] In some embodiments, the subject produces sebum in an amount of 100 μg/cm^2 and above (e.g., 125, 135, 150, 175, 200 μg/cm^2 or higher).

patients with acne = assay: Treatment of acne
Procedure: The compound of the disclosure (e.g., dexmecamylamine substantially free of exo-R-mecamylamine or pharmaceutically acceptable salt thereof) is administered to patients with acne. […] In some embodiments, the compound is dexmecamylamine substantially free of exo-R-mecamylamine, or a pharmaceutically acceptable salt thereof. In some embodiments, the subject produces sebum in an amount of 100 μg/cm^2 and above (e.g., 125, 135, 150, 175, 200 μg/cm^2 or higher). In particular, 4 mg of dexmecamylamine hydrochloride is administered orally twice a day to a subject. Subjects have oily skin (>100 μg/cm^2) as measured on three locations of the face by a Sebumeter® grease spot photometry device and has facial acne vulgaris (including the nose). Efficacy is determined by a comparison of sebum as an absolute change from baseline at 12 weeks. Other measures of efficacy include the absolute change from baseline in inflammatory and non-inflammatory lesion counts at 8 weeks and the percent change from baseline in lesion counts (inflammatory and noninflammatory) at weeks 8 and 12. […] The assessment may include the quantity of lesions, size of lesions, intensity of inflammation, and location of lesions to consider the quality and quantity of lesions.

patients with seborrhea = assay: Treatment of seborrhea
Procedure: The compound of the disclosure (e.g., dexmecamylamine substantially free of exo-R-mecamylamine) is administered to patients with seborrhea. […] In some embodiments, the subject produces sebum in an amount of 100 μg/cm^2 and above (e.g., 125, 135, 150, 175, 200 μg/cm^2 or higher).

[6] = tested on: human subjects with hyperhidrosis and oily skin; assay: Phase II clinical study, facial sebum production; conditions: for Average response category at 2 weeks: change in percent of average facial sebum quantity at end of 2-week treatment vs baseline; for Average response category at 4 weeks: change in percent of average facial sebum quantity at end of 4-week treatment vs baseline; for Responders (%): subjects with 20% or greater reduction in sebum quantity following treatment
Description: Acne vulgaris is a dermatological condition characterized by increased sebum production, which is driven, in part, by cholinergic signaling within the sympathetic nervous system. Activation of nicotinic receptors on human sebaceous glands is known to increase sebum production and secretion. Dexmecamylamine acts on nicotinic acetylcholine receptors to reduce sympathetic tone through the selective inhibition of presynaptic nicotinic receptors in the sympathetic ganglia. In order to determine the therapeutic efficacy of dexmecamylamine in the treatment of acne and related conditions, the inventors leveraged a Phase II clinical study in 15 human subjects with hyperhidrosis and oily skin (i.e., sebum production of 100 μg/cm^2 or greater (e.g., 125, 135, 150, 175, 200 μg/cm^2 or higher)) that were treated with dexmecamylamine hydrochloride. […] [table]

[7] = tested on: patients with sebaceous hyperplasia; assay: Treatment of sebaceous hyperplasia
Procedure: The compound of the disclosure (e.g., dexmecamylamine substantially free of exo-R-mecamylamine) is administered to patients with sebaceous hyperplasia. […] In some embodiments, the subject produces sebum in an amount of 100 μg/cm^2 and above (e.g., 125, 135, 150, 175, 200 μg/cm^2 or higher).

patients with wrinkles = assay: Treatment of wrinkles
Procedure: The compound of the disclosure (e.g., dexmecamylamine substantially free of exo-R-mecamylamine) is administered to patients with wrinkles. […] In some embodiments, the subject produces sebum in an amount of 100 μg/cm^2 and above (e.g., 125, 135, 150, 175, 200 μg/cm^2 or higher).

[8] = tested on: patients with seborrheic dermatitis; assay: Treatment of seborrheic dermatitis
Procedure: The compound of the disclosure (e.g., dexmecamylamine substantially free of exo-R-mecamylamine) is administered to patients with seborrheic dermatitis. […] In some embodiments, the subject produces sebum in an amount of 100 μg/cm^2 and above (e.g., 125, 135, 150, 175, 200 μg/cm^2 or higher).

patients with oily skin = assay: Treatment of oily skin
Procedure: The compound of the disclosure (e.g., dexmecamylamine substantially free of exo-R-mecamylamine) is administered to patients with oily skin. […] In some embodiments, the subject produces sebum in an amount of 100 μg/cm^2 and above (e.g., 125, 135, 150, 175, 200 μg/cm^2 or higher).

Structure (SMILES): CN[C@@]1(C)[C@@H]2CC[C@@H](C2)C1(C)C [dexmecamylamine]
- symptoms, sebaceous cyst [1]: improved symptoms
- symptoms, sebaceous adenoma [2]: improved symptoms
- symptoms, enlarged pores [3]: improved symptoms
- symptoms, hidradenitis suppurativa [4]: improved symptoms
- symptoms, sebaceous carcinoma [5]: improved symptoms
- symptoms of acne (whiteheads, blackheads, papules, pimples, nodules, cysts) (patients with acne): improved symptoms
- symptoms, seborrhea (patients with seborrhea): improved symptoms
- Average response category at 2 weeks ([6]; 2 mg BID): Low (Reduction in sebum production of less than 20%.)
- Average response category at 4 weeks ([6]; 2 mg BID): Medium^†† (Reduction in sebum production between 20% and 35%.)
- Responders (%) ([6]; 2 mg BID): 80%
- facial sebum production ([6]; 2 mg or 4 mg BID, four weeks of treatment): reduction in facial sebum production
- Average response category at 2 weeks ([6]; 4 mg BID): Low (Reduction in sebum production of less than 20%.)
- Average response category at 4 weeks ([6]; 4 mg BID): High^††† (Reduction in sebum production of greater than 35%.)
- Responders (%) ([6]; 4 mg BID): 100%
- symptoms, sebaceous hyperplasia [7]: improved symptoms
- symptoms, wrinkles (patients with wrinkles): improved symptoms
- symptoms, seborrheic dermatitis [8]: improved symptoms
- symptoms, oil production by the skin (patients with oily skin): improved symptoms
